Converted amounts (≈) assume the structure as drawn.
Assays:
[1] = system: Staphylococcus aureus; assay: Antibacterial susceptibility testing: IC90 determination (broth microdilution, resazurin fluorescence); type: cell-based; conditions: 90% inhibitory concentration for bacterial growth, Mueller Hinton broth, 35° C., 16-20 hours, strain not given
Procedure: Preparation of Bacterial Suspensions for Susceptibility Testing
The following bacteria were used: Staphylococcus aureus ATCC 29213, methicillin-resistant Staphylococcus aureus (MRSA) ATCC 700788 and Escherichia coli ATCC 35218. The bacteria used in this study were grown overnight in flasks containing 100 ml Mueller-Hinton broth (Difco cat. nr. 0757-17) in sterile de-ionized water, with shaking, at 37° C. Stocks were store at −70° C. until use.
Bacteria were incubated on a tryptic soy agar plate containing 5% sheep blood (Becton Dickinson cat. nr. 254053) for 18-24 hours at 35° C. in aerobic conditions (first passage). For the second passage, fresh Mueller-Hinton broth is inoculated with 5-10 colonies and grown overnight at 35° C. until turbidity (reaching log-phase) in aerobic conditions is reached. The bacterial suspension is then adjusted to 0.5 McFarland density and further diluted 1:100 in Mueller Hinton broth medium. This is used as inoculum.
Antibacterial Susceptibility Testing: IC90 Determination
MIC assays were performed by the broth microdilution method in a 96-well format (flat-bottom microtitre plates) with a final volume of 0.1 ml Mueller Hinton broth containing two-fold serial dilutions of compounds and inoculated with 5×10^5 CFU/ml of bacteria (standard inoculum size according to CLSI guidelines). Inhibitors are typically varied over the range of 63 to 0.49 μM. The final DMSO concentration in the assay was 1.25% (maximum tolerable DMSO concentration=6%). In the assays where the effect of human serum on the activity of the compounds against S. aureus was tested, human serum was added at a final concentration of 10%. The plates were incubated at 35° C. for 16-20 hours. At the end of incubation the bacterial growth was quantified fluorometrically. For this, resazurin was added to all wells and the plates were re-incubated. The incubation time is dependent on the type of bacteria. A change in color from blue to pink indicated the growth of bacteria. The fluorescence was read in computer-controlled fluorometer (Fluoroskan Ascent FL, Labsystems) at an excitation wavelength 540 nm and an emission wavelength of 590 nm. The % growth inhibition achieved by the compounds was calculated according to standard methods. The IC90 (expressed in μg/ml) was defined as the 90% inhibitory concentration for bacterial growth. A panel of reference compounds were simultaneously tested for QC approval.

[2] = Cytotoxicity MTT assay; type: cell-based; conditions: human, HelaM cells, concentration that causes 50% reduction in cell viability
Procedure: Cytotoxicity of the compounds was evaluated using the MTT assay. Human HelaM cells grown in 96-well plates were exposed to serial dilutions of the tested compounds (final volume of 0.2 ml) and incubated for 72 hours at 37° C. and 5% CO2 Inhibitors are typically varied over the range of 25 to 0.8 μM. The final DMSO concentration in the assay is 0.5%. MTT (3-(4,5-Dimethylthiazol-2-yl)-2,5-diphenyltetrazolium bromide, a tetrazole) was added and reduced to purple formazan only in living cells. Solubilization of the formazan crystals was achieved by adding 100 μl 2-propanol. Cell viability was determined by measuring the absorbance of the reduced formazan, giving a purple color, at 540 nm and 690 nm. The absorbance measured at 690 nm was automatically subtracted from the absorbance at 540 nm, to eliminate the effects of non-specific absorption. The percent cytotoxicity achieved by the compounds was calculated according to standard methods. Cytotoxicity is reported as CC50, the concentration that causes a 50% reduction in cell viability.

Row | IC90 [1] | melting point | Structure (SMILES) | CC50 at 72 h [2]
1 | 7.51 µg/mL (≈ 17.8 µM) | 157 to 159 °C | COc1cccc(-c2cnc(-c3ccncc3)nc2N2CCC(c3ccccc3)CC2)c1 [Compound 26] | 5.7 µg/mL (≈ 13.5 µM)
2 | 1.29 µg/mL (≈ 3.13 µM) | 155 °C | CC(C)(C)CN1CCC(c2nc(-c3ccncc3)ncc2-c2cccc(C#N)c2)CC1 [Compound 54] | > 10.3 µg/mL
3 | 3.49 µg/mL (≈ 7.41 µM) | 133 °C | COc1cccc(-c2cnc(-c3ccncc3)nc2C2CCN(Cc3cccc(Cl)c3)CC2)c1 [Compound 45] | 4.9 µg/mL (≈ 10.4 µM)
4 | 13.2 µg/mL (≈ 29.2 µM) | 160 °C | COc1cccc(-c2cnc(-c3ccncc3)nc2C2CCN(Cc3cccc(C)c3)CC2)c1 [Compound 33] | 7.6 µg/mL (≈ 16.9 µM)
5 | 2.23 µg/mL (≈ 4.73 µM) | 131 °C | COc1cccc(-c2cnc(-c3ccncc3)nc2C2CCN(Cc3ccc(Cl)cc3)CC2)c1 [Compound 44] | 7 µg/mL (≈ 14.9 µM)
6 | < 0.21 µg/mL | 154 to 158 °C | CC(C)(C)CN1CCC(c2nc(-c3ccc(F)cc3)ncc2-c2cccc(C#N)c2)CC1 [Compound 66] | 8.8 µg/mL (≈ 20.5 µM)
7 | 5.5 µg/mL (≈ 12.6 µM) | 149 to 151 °C | Cc1cccc(-c2cnc(-c3ccncc3)nc2C2CCN(Cc3ccccc3O)CC2)c1 [Compound 8] | > 4.4 µg/mL
8 | 13.4 µg/mL (≈ 36.3 µM) | – | CN(C)c1ncc(-c2ccccc2F)c(C2CCN(CC(C)(C)C)CC2)n1 [Compound 51] | 7.8 µg/mL (≈ 21.1 µM)
9 | 12.9 µg/mL (≈ 29.2 µM) | 135 °C | COc1cccc(-c2cnc(-c3ccncc3)nc2C2CCN(Cc3ccsc3)CC2)c1 [Compound 4] | > 11.1 µg/mL
10 | 0.76 µg/mL (≈ 1.81 µM) | 119 to 121 °C | CC(C)(C)CN1CCC(c2nc(-c3ccncc3)ncc2-c2cccc(Cl)c2)CC1 [Compound 39] | 7.3 µg/mL (≈ 17.3 µM)
11 | 2.24 µg/mL (≈ 4.74 µM) | 158 °C | COc1cccc(-c2cnc(-c3ccncc3)nc2C2CCN(Cc3ccc(F)c(F)c3)CC2)c1 [Compound 43] | 6.2 µg/mL (≈ 13.1 µM)
12 | 7.37 µg/mL (≈ 15.1 µM) | 165 to 166 °C | COc1cccc(-c2cnc(-c3ccccn3)nc2C2CCN(Cc3cc(Cl)ccc3O)CC2)c1 [Compound 23] | 4.4 µg/mL (≈ 9.03 µM)
13 | 3.27 µg/mL (≈ 7.59 µM) | 165 °C | COc1cccc(-c2cnc(-c3ccncc3)nc2C2CCN(C(=O)C(C)(C)C)CC2)c1 [Compound 25] | > 10.8 µg/mL
14 | 6.99 µg/mL (≈ 15.1 µM) | 168 °C | COc1cccc(-c2cnc(-c3ccncc3)nc2C2CCN(Cc3ccc(C#N)cc3)CC2)c1 [Compound 34] | 8.7 µg/mL (≈ 18.8 µM)
15 | 1.46 µg/mL (≈ 3.63 µM) | 114 to 116 °C | CC(C)(C)CN1CCC(c2nc(C(F)(F)F)ncc2-c2cccc(C#N)c2)CC1 [Compound 64] | > 10.1 µg/mL
16 | 5.19 µg/mL (≈ 12 µM) | 137 to 138 °C | COc1cccc(-c2cnc(-c3ccncc3)nc2NC2CCN(CC(C)(C)C)CC2)c1 [Compound 30] | 8.8 µg/mL (≈ 20.4 µM)
17 | 9.1 µg/mL (≈ 18.4 µM) | 138 to 140 °C | COc1cccc(-c2cnc(-c3cccnc3)nc2C2CCN(C(=O)C(C)Oc3ccccc3)CC2)c1 (stereo not shown) [Compound 27] | 7.1 µg/mL (≈ 14.4 µM)
18 | 5.59 µg/mL (≈ 12.3 µM) | 111 to 114 °C | COc1cccc(-c2cnc(-c3ccncc3)nc2C2CCN(Cc3cccc(F)c3)CC2)c1 [Compound 3] | > 4.5 µg/mL
19 | 1.49 µg/mL (≈ 3.63 µM) | 123 °C | COc1cccc(-c2cnc(-c3ccncc3)nc2C2CCN(CC(F)F)CC2)c1 [Compound 56] | > 10.3 µg/mL
20 | 2.1 µg/mL (≈ 4.31 µM) | 227 to 228 °C | COc1cccc(-c2cnc(-c3ccncc3)nc2C2CCN(Cc3cc(Cl)ccc3O)CC2)c1 [Compound 5] | 6.3 µg/mL (≈ 12.9 µM)
21 | 6.92 µg/mL (≈ 15.9 µM) | 174 °C | COc1cccc(-c2cnc(-c3ccncc3)nc2C2CCN(Cc3ccccc3)CC2)c1 [Compound 16] | > 11 µg/mL
22 | 5.47 µg/mL (≈ 14.3 µM) | – | COc1ccc(-c2cnc(N(C)C)nc2C2CCN(CC(C)(C)C)CC2)cc1 [Compound 53] | 7.5 µg/mL (≈ 19.6 µM)
23 | 8.66 µg/mL (≈ 19.1 µM) | 139 °C | COc1cccc(-c2cnc(-c3ccncc3)nc2C2CCN(Cc3ccccc3F)CC2)c1 [Compound 41] | 7.7 µg/mL (≈ 16.9 µM)

Row | IC90 [1] | melting point | Structure (SMILES) | CC50 at 72 h [2]
24 | 13 µg/mL (≈ 30.5 µM) | 120 °C | COc1cccc(-c2cnc(-c3ccncc3)nc2C2CCN(Cc3ccco3)CC2)c1 [Compound 18] | > 10.7 µg/mL
25 | 7.15 µg/mL (≈ 14.5 µM) | – | COc1cccc(-c2cnc(-c3ccncc3)nc2C2CCN(C(=O)C(C)Oc3ccccc3)CC2)c1 (stereo not shown) [Compound 20] | 8.1 µg/mL (≈ 16.4 µM)
26 | 5.49 µg/mL (≈ 13.6 µM) | 105 to 106 °C | COc1cccc(-c2cnc(-c3ccncc3)nc2C2CCN(CC(C)C)CC2)c1 [Compound 11] | > 10.1 µg/mL
27 | 1.71 µg/mL (≈ 3.63 µM) | 180 to 181 °C | Cc1cccc(-c2cnc(-c3ccncc3)nc2C2CCN(Cc3cc(Cl)ccc3O)CC2)c1 [Compound 13] | 5.2 µg/mL (≈ 11 µM)
28 | 25.9 µg/mL (≈ 61 µM) | – | CC1(CN2CCC(c3nc(-c4ccncc4)ncc3-c3cccc(C#N)c3)CC2)COC1 [Compound 72] | –
29 | 5.28 µg/mL (≈ 10.5 µM) | 156 °C | COc1cccc(-c2cnc(-c3ccncc3)nc2C2CCN(Cc3cccc(C(F)(F)F)c3)CC2)c1 [Compound 28] | 4.7 µg/mL (≈ 9.32 µM)
30 | 0.64 µg/mL (≈ 1.51 µM) | – | COc1cccc(-c2cnc(-c3ccncc3)nc2C2CCN(CC(C)(F)F)CC2)c1 [Compound 70] | 6.7 µg/mL (≈ 15.8 µM)
31 | 0.39 µg/mL (≈ 0.934 µM) | 117 to 120 °C | COc1cccc(-c2cnc(-c3ccncc3)nc2N2CCN(CC(C)(C)C)CC2)c1 [Compound 21] | 5.9 µg/mL (≈ 14.1 µM)
32 | 0.69 µg/mL (≈ 1.63 µM) | 168 to 172 °C | N#Cc1cccc(-c2cnc(-c3ccncc3)nc2C2CCN(CC(F)(F)F)CC2)c1 [Compound 58] | > 10.6 µg/mL
33 | 5.04 µg/mL (≈ 12.6 µM) | 170 to 171 °C | Cc1ccc(-c2cnc(-c3ccncc3)nc2C2CCN(CC(C)(C)C)CC2)cc1 [Compound 38] | > 4 µg/mL
34 | 8.5 µg/mL (≈ 18.6 µM) | – | COc1cccc(-c2cnc(-c3ccncc3)nc2C2CCN(Cc3sccc3C)CC2)c1 [Compound 1] | –
35 | 3.02 µg/mL (≈ 7.34 µM) | 148 to 150 °C | CC(C)(C)CN1CCC(c2nc(-c3cccnc3)ncc2-c2cccc(C#N)c2)CC1 [Compound 69] | > 10.3 µg/mL
36 | 2.98 µg/mL (≈ 7.15 µM) | 154 to 156 °C | COc1ccc(-c2cnc(-c3ccncc3)nc2C2CCN(CC(C)(C)C)CC2)cc1 [Compound 36] | > 10.5 µg/mL
37 | 7.32 µg/mL (≈ 15.9 µM) | 140 °C | COc1cccc(-c2cnc(-c3ccncc3)nc2C2CCN(Cc3cccc(C#N)c3)CC2)c1 [Compound 31] | 4.2 µg/mL (≈ 9.1 µM)
38 | 0.39 µg/mL (≈ 0.912 µM) | 117 °C | COc1cccc(-c2cnc(-c3ccncc3)nc2C2CCN(CC(C)(C)C#N)CC2)c1 [Compound 57] | 7.3 µg/mL (≈ 17.1 µM)
39 | 6.75 µg/mL (≈ 14.6 µM) | 158 °C | COc1cccc(-c2cnc(-c3ccncc3)nc2C2CCN(Cc3ccccc3C#N)CC2)c1 [Compound 42] | 5.1 µg/mL (≈ 11 µM)
40 | < 0.22 µg/mL | – | COc1cccc(-c2cnc(-c3ccc(F)cc3)nc2C2CCN(CC(F)(F)F)CC2)c1 [Compound 71] | –
41 | 1.28 µg/mL (≈ 3.31 µM) | – | CN(C)c1ncc(-c2cccc(Cl)c2)c(C2CCN(CC(C)(C)C)CC2)n1 [Compound 52] | 6.7 µg/mL (≈ 17.3 µM)
42 | 0.39 µg/mL (≈ 0.91 µM) | – | COc1cccc(-c2cnc(-c3ccncc3)nc2C2CCN(CC(F)(F)F)CC2)c1 [Compound 55] | 6.3 µg/mL (≈ 14.7 µM)
43 | 13.7 µg/mL (≈ 33.1 µM) | – | C/C=C(\C)CN1CCC(c2nc(-c3ccncc3)ncc2-c2cccc(OC)c2)CC1 [Compound 2] | –
44 | 14.3 µg/mL (≈ 33.9 µM) | – | Oc1ccccc1CN1CCC(c2nc(-c3cccnc3)ncc2-c2ccccc2)CC1 [Compound 7] | –
45 | > 25.9 µg/mL | – | CC(C)(C)CN1CCCC(c2nc(-c3ccncc3)ncc2-c2cccc(C#N)c2)C1 (stereo not shown) [Compound 61] | > 10.3 µg/mL

Source: patent publication US9725432B2, “Pyrimidine derivatives for the treatment of bacterial diseases” (JANSSEN R&D IRELAND, priority 2012, dated 2017)
